Experimental data from PubChem BioAssay AID256 (DTP/NCI, 2004).
Values joined by “and” are separate entries in the source; they are usually repeats but may differ in a detail not shown here. Identical values can stand only once. Toxic doses and inconclusive results are not listed. How the source made its calls: active means survival T/C of 150% or more; inactive means T/C below 125% in these data.

System: CD2F1 mice, L1210 leukemia ip, survival T/C
Assay: NCI In Vivo Anticancer Drug Screen. Data for tumor model L1210 Leukemia (intraperitoneal) in CD2F1 (CDF1) mice
Conditions: higher = longer survival
How it was run: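 Activity against a transplanted murine tumor was judged by comparing the compound group with a vehicle group. The outcome in the treated animals was divided by that in the controls.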

[1] = endpoint: mean survival time, dose: 100.0 mg/kg/injection, schedule: Q01DX009 (ip), vehicle: saline with Tween-80
[2] = endpoint: mean survival time, dose: 25.0 mg/kg/injection, schedule: Q01DX009 (ip), vehicle: water
[3] = endpoint: mean survival time, dose: 50.0 mg/kg/injection, schedule: Q01DX001 (ip), vehicle: saline with Tween-80
[4] = endpoint: mean survival time, dose: 100.0 mg/kg/injection, schedule: Q01DX001 (ip), vehicle: saline with Tween-80
[5] = endpoint: mean survival time, dose: 100.0 mg/kg/injection, schedule: Q01DX009 (ip), vehicle: saline
[6] = endpoint: mean survival time, dose: 200.0 mg/kg/injection, schedule: Q01DX009 (ip), vehicle: saline

Measured: T/C

CCOC(=O)C(CC(C)C)NC(=O)C(N)Cc1ccc(N(CCCl)CCCl)cc1 (stereo unspecified)
inactive: endpoint: mean survival time, dose: 1.25 mg/kg/injection, schedule: Q01DX009 (ip), vehicle: water 106 % of control | endpoint: mean survival time, dose: 2.5 mg/kg/injection, schedule: Q01DX009 (ip), vehicle: water 115 % of control and 119 % of control | endpoint: mean survival time, dose: 20.0 mg/kg/injection, schedule: Q01DX009 (ip), vehicle: water 114 % of control | endpoint: median survival time, dose: 3.6 mg/kg/injection, schedule: Q01DX009 (ip), vehicle: water 118 % of control | endpoint: median survival time, dose: 27.78 mg/kg/injection, schedule: Q01DX009 (ip), vehicle: water 118 % of control
active: endpoint: mean survival time, dose: 10.0 mg/kg/injection, schedule: Q01DX009 (ip), vehicle: water 169 % of control | endpoint: median survival time, dose: 16.67 mg/kg/injection, schedule: Q01DX009 (ip), vehicle: water 175 % of control

N#CC(Cl)(C#N)c1ccc(C(Cl)(C#N)C#N)cc1
inactive: endpoint: mean survival time, dose: 25.0 mg/kg/injection, schedule: Q01DX009 (ip), vehicle: saline with Tween-80 101 % of control | endpoint: mean survival time, dose: 50.0 mg/kg/injection, schedule: Q01DX009 (ip), vehicle: saline with Tween-80 104 % of control | [1] 98 % of control and 101 % of control

CC(=N\O)/C(C)=N/O.CC(=N\O)/C(C)=N/O.CCCC1CC[N-]CC1.CCCC1CC[N-]CC1.CCCC1CC[N-]CC1.CCCC1CC[N-]CC1.[Cl-].[Cl-].[Cl][Rh][Cl].[Rh+3]
inactive: endpoint: mean survival time, dose: 6.25 mg/kg/injection, schedule: Q01DX009 (ip), vehicle: water 97 % of control | endpoint: mean survival time, dose: 6.25 mg/kg/injection, schedule: Q04DX003 (ip), vehicle: water 86 % of control | endpoint: mean survival time, dose: 12.5 mg/kg/injection, schedule: Q04DX003 (ip), vehicle: water 94 % of control | [2] 88 % of control | endpoint: mean survival time, dose: 25.0 mg/kg/injection, schedule: Q04DX003 (ip), vehicle: water 86 % of control

CCC[N+](CCC)(CCC)CCC.N#CC(C#N)=C([SH2+])[SH2+].N#CC(C#N)=C([SH2+])[SH2+].N#CC(C#N)=C([SH2+])[SH2+].[Fe+3]
inactive: endpoint: mean survival time, dose: 25.0 mg/kg/injection, schedule: Q04DX003 (ip), vehicle: acetone 103 % of control | endpoint: mean survival time, dose: 50.0 mg/kg/injection, schedule: Q04DX003 (ip), vehicle: acetone 97 % of control

NC(=O)Nc1cc(NC(N)=O)cc(N(CCCl)CCCl)c1
inactive: endpoint: mean survival time, dose: 2.5 mg/kg/injection, schedule: Q01DX009 (ip), vehicle: Klucel (hydroxypropylcellulose) (HPC) 108 % of control | endpoint: mean survival time, dose: 5.0 mg/kg/injection, schedule: Q01DX009 (ip), vehicle: Klucel (hydroxypropylcellulose) (HPC) 111 % of control | endpoint: mean survival time, dose: 10.0 mg/kg/injection, schedule: Q01DX009 (ip), vehicle: Klucel (hydroxypropylcellulose) (HPC) 119 % of control

Cc1ccc(S(=O)(=O)OCC(O)C(O)C(O)C(O)COS(=O)(=O)c2ccc(C)cc2)cc1 (stereo unspecified)
inactive: [3] 96 % of control | [4] 96 % of control | endpoint: mean survival time, dose: 200.0 mg/kg/injection, schedule: Q01DX001 (ip), vehicle: saline with Tween-80 96 % of control

O=C/C=C/Nc1ccccc1
inactive: [5] 94 % of control | [6] 102 % of control | endpoint: mean survival time, dose: 400.0 mg/kg/injection, schedule: Q01DX009 (ip), vehicle: saline 96 % of control

COc1ccc(-c2nc3c(N)nc(N)nc3nc2N)cc1OC
inactive: endpoint: mean survival time, dose: 12.5 mg/kg/injection, schedule: Q01DX009 (ip), vehicle: water 105 % of control | [2] 103 % of control | endpoint: mean survival time, dose: 50.0 mg/kg/injection, schedule: Q01DX009 (ip), vehicle: water 103 % of control | endpoint: mean survival time, dose: 100.0 mg/kg/injection, schedule: Q01DX009 (ip), vehicle: water 98 % of control | endpoint: mean survival time, dose: 200.0 mg/kg/injection, schedule: Q01DX009 (ip), vehicle: water 88 % of control

O=c1c2nccnc2nc2n1CCCCC2
inactive: endpoint: mean survival time, dose: 75.0 mg/kg/injection, schedule: Q01DX001 (ip), vehicle: saline 100 % of control | endpoint: mean survival time, dose: 150.0 mg/kg/injection, schedule: Q01DX001 (ip), vehicle: saline 103 % of control | endpoint: mean survival time, dose: 300.0 mg/kg/injection, schedule: Q01DX001 (ip), vehicle: saline 103 % of control

CSc1ncnc2nn(C3OC(CO)C(O)C3O)cc12 (stereo unspecified)
inactive: endpoint: mean survival time, dose: 12.5 mg/kg/injection, schedule: Q01DX005 (ip), vehicle: water 103 % of control | endpoint: mean survival time, dose: 25.0 mg/kg/injection, schedule: Q01DX005 (ip), vehicle: water 96 % of control | endpoint: mean survival time, dose: 50.0 mg/kg/injection, schedule: Q01DX005 (ip), vehicle: water 103 % of control | endpoint: mean survival time, dose: 100.0 mg/kg/injection, schedule: Q01DX005 (ip), vehicle: water 107 % of control | endpoint: mean survival time, dose: 200.0 mg/kg/injection, schedule: Q01DX005 (ip), vehicle: water 100 % of control

CC(=O)OCC1OC(OC(C)=O)C(NC(=O)Nc2ccccc2)C(OC(C)=O)C1OC(C)=O (stereo unspecified)
inactive: endpoint: mean survival time, dose: 12.5 mg/kg/injection, schedule: Q01DX009 (ip), vehicle: other 96 % of control | endpoint: mean survival time, dose: 25.0 mg/kg/injection, schedule: Q01DX009 (ip), vehicle: other 94 % of control | endpoint: mean survival time, dose: 50.0 mg/kg/injection, schedule: Q01DX009 (ip), vehicle: other 96 % of control | endpoint: mean survival time, dose: 100.0 mg/kg/injection, schedule: Q01DX009 (ip), vehicle: other 93 % of control | endpoint: mean survival time, dose: 200.0 mg/kg/injection, schedule: Q01DX009 (ip), vehicle: other 94 % of control

O=C1CCCc2c1[nH]c1ccccc21
inactive: [1] 94 % of control | endpoint: mean survival time, dose: 200.0 mg/kg/injection, schedule: Q01DX009 (ip), vehicle: saline with Tween-80 104 % of control | endpoint: mean survival time, dose: 400.0 mg/kg/injection, schedule: Q01DX009 (ip), vehicle: saline with Tween-80 102 % of control

CC12CCC(=O)C=C1CCC1C2C(=O)CC2(C)C1CCC2(O)C(=O)Cn1ccc(=O)[nH]c1=O (stereo unspecified)
inactive: endpoint: mean survival time, dose: 12.5 mg/kg/injection, schedule: Q04DX003 (ip), vehicle: Klucel (hydroxypropylcellulose) (HPC) 91 % of control | endpoint: mean survival time, dose: 25.0 mg/kg/injection, schedule: Q04DX003 (ip), vehicle: Klucel (hydroxypropylcellulose) (HPC) 101 % of control | endpoint: mean survival time, dose: 50.0 mg/kg/injection, schedule: Q04DX003 (ip), vehicle: Klucel (hydroxypropylcellulose) (HPC) 98 % of control | endpoint: mean survival time, dose: 100.0 mg/kg/injection, schedule: Q04DX003 (ip), vehicle: Klucel (hydroxypropylcellulose) (HPC) 96 % of control | endpoint: mean survival time, dose: 200.0 mg/kg/injection, schedule: Q04DX003 (ip), vehicle: Klucel (hydroxypropylcellulose) (HPC) 98 % of control

CC1(C)N=C(N)N=C(N)N1c1ccc(OCCCCNC(=O)Nc2ccc(S(=O)(=O)F)cc2)c(Cl)c1
inactive: endpoint: mean survival time, dose: 25.0 mg/kg/injection, schedule: Q01DX001 (ip), vehicle: saline with Tween-80 101 % of control | [3] 95 % of control | [4] 94 % of control and 95 % of control

O=C(C=P(c1ccccc1)(c1ccccc1)c1ccccc1)c1ccc([N+](=O)[O-])cc1
inactive: endpoint: mean survival time, dose: 50.0 mg/kg/injection, schedule: Q01DX001 (ip), vehicle: Klucel (hydroxypropylcellulose) (HPC) 90 % of control | endpoint: mean survival time, dose: 100.0 mg/kg/injection, schedule: Q01DX001 (ip), vehicle: Klucel (hydroxypropylcellulose) (HPC) 94 % of control | endpoint: mean survival time, dose: 200.0 mg/kg/injection, schedule: Q01DX001 (ip), vehicle: Klucel (hydroxypropylcellulose) (HPC) 102 % of control | endpoint: mean survival time, dose: 400.0 mg/kg/injection, schedule: Q01DX001 (ip), vehicle: Klucel (hydroxypropylcellulose) (HPC) 93 % of control

O=C(O)c1cc(C(=O)O)c(C(=O)O)cc1C(=O)O.[NH2-].[NH2-].[NH2-].[NH2-].[Pt+2].[Pt+2]
inactive: endpoint: mean survival time, dose: 0.2 mg/kg/injection, schedule: Q04DX003 (ip), vehicle: water 124 % of control and 106 % of control | endpoint: mean survival time, dose: 0.39 mg/kg/injection, schedule: Q04DX003 (ip), vehicle: water 115 % of control and 119 % of control | endpoint: mean survival time, dose: 2.0 mg/kg/injection, schedule: Q04DX003 (ip), vehicle: water 98 % of control | endpoint: mean survival time, dose: 4.0 mg/kg/injection, schedule: Q04DX003 (ip), vehicle: water 97 % of control | endpoint: mean survival time, dose: 8.0 mg/kg/injection, schedule: Q04DX003 (ip), vehicle: water 106 % of control | endpoint: mean survival time, dose: 16.0 mg/kg/injection, schedule: Q04DX003 (ip), vehicle: water 110 % of control | endpoint: median survival time, dose: 0.12 mg/kg/injection, schedule: Q01DX009 (ip), vehicle: water 97 % of control | endpoint: median survival time, dose: 0.25 mg/kg/injection, schedule: Q01DX009 (ip), vehicle: water 97 % of control | endpoint: median survival time, dose: 0.5 mg/kg/injection, schedule: Q01DX009 (ip), vehicle: water 97 % of control | endpoint: median survival time, dose: 1.0 mg/kg/injection, schedule: Q01DX009 (ip), vehicle: water 92 % of control and 100 % of control and 112 % of control | endpoint: median survival time, dose: 2.0 mg/kg/injection, schedule: Q01DX009 (ip), vehicle: water 100 % of control and 101 % of control and 109 % of control | endpoint: median survival time, dose: 4.0 mg/kg/injection, schedule: Q01DX009 (ip), vehicle: water 124 % of control and 105 % of control | endpoint: median survival time, dose: 8.0 mg/kg/injection, schedule: Q01DX009 (ip), vehicle: water 124 % of control and 111 % of control (2×) | endpoint: median survival time, dose: 16.0 mg/kg/injection, schedule: Q01DX009 (ip), vehicle: water 96 % of control | endpoint: median survival time, dose: 32.0 mg/kg/injection, schedule: Q01DX009 (ip), vehicle: water 90 % of control

CCN(CC)CCOCCO
inactive: [5] 102 % of control | [6] 96 % of control
